Test results taken from the supplement of paper PMC10307832.

Key:
Experiment in all cases: relative viability (nuclei count vs DMSO), 5 days (fraction); higher = more cells survive
[1] = compound: CN(C)CC1=CC(=CC=C1)N=C(C2=CC=CC=C2)C3=C(NC4=C3C=CC(=C4)C(=O)N(C)C)O
Summary of the method: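 For viability, nuclei in each treated well were divided by nuclei in vehicle wells and the median across plates was taken. Lung cancer cell lines in 1536-well plates were pinned with five library-drug doses (not always all listed) spaced by √10, cultured 5 days without medium change, and imaged at 4× after Hoechst staining, with plates passing only at control CV below 25% and at least one doubling.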

[2] = compound: CN(C)CC1=CC(=CC=C1)N=C(C2=CC=CC=C2)C3=C(NC4=C3C=CC(=C4)C(=O)N(C)C)O + Cc1cc(Nc2cc(N3CCN(C)CC3)nc(Sc3ccc(NC(=O)C4CC4)cc3)n2)n[nH]1 [Tozasertib] (partner 0.1 µM)
Summary of the method: (§1)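 Lung cancer cell lines, seeded in 1536-well plates, were treated the following day by pin tool with a single drug or with five library-drug doses (not always all listed) in √10 steps on top of a fixed anchor-drug dose. Cells were fixed and nuclei stained in one step after 5 days, and nuclei were counted. Relative viability is the nuclei count for treated wells divided by that for vehicle wells, reported as medians of duplicate plates.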

[3] = compound: CN(C)CC1=CC(=CC=C1)N=C(C2=CC=CC=C2)C3=C(NC4=C3C=CC(=C4)C(=O)N(C)C)O + COc1cc2c(Oc3ccc(NC(=O)C4(C(=O)Nc5ccc(F)cc5)CC4)cc3F)ccnc2cc1OCCCN1CCOCC1 [Foretinib] (partner 0.25 µM)
Summary of the method: as §1

[4] = compound: CN(C)CC1=CC(=CC=C1)N=C(C2=CC=CC=C2)C3=C(NC4=C3C=CC(=C4)C(=O)N(C)C)O + Nc1nc2[nH]cc(CCc3ccc(C(=O)N[C@@H](CCC(=O)O)C(=O)O)cc3)c2c(=O)[nH]1 [Pemetrexed] (partner 0.2 µM)
Summary of the method: as §1

[5] = compound: CN(C)CC1=CC(=CC=C1)N=C(C2=CC=CC=C2)C3=C(NC4=C3C=CC(=C4)C(=O)N(C)C)O + Cc1nc(Nc2ncc(C(=O)Nc3c(C)cccc3Cl)s2)cc(N2CCN(CCO)CC2)n1 [Dasatinib] (partner 0.075 µM)
Summary of the method: as §1

[6] = compound: CN(C)CC1=CC(=CC=C1)N=C(C2=CC=CC=C2)C3=C(NC4=C3C=CC(=C4)C(=O)N(C)C)O + NC(=O)Nc1cc(-c2cccc(F)c2)sc1C(=O)N[C@H]1CCCNC1 [AZD7762] (partner 0.2 µM)
Summary of the method: as §1

[7] = compound: CN(C)CC1=CC(=CC=C1)N=C(C2=CC=CC=C2)C3=C(NC4=C3C=CC(=C4)C(=O)N(C)C)O + O=C(CCCCCCC(=O)Nc1ccccc1)NO [Vorinostat] (partner 1 µM)
Summary of the method: as §1

[8] = compound: CN(C)CC1=CC(=CC=C1)N=C(C2=CC=CC=C2)C3=C(NC4=C3C=CC(=C4)C(=O)N(C)C)O + CCNC(=O)c1noc(-c2cc(C(C)C)c(O)cc2O)c1-c1ccc(CN2CCOCC2)cc1 [Luminespib] (partner 0.01 µM)
Summary of the method: as §1

[9] = compound: CN(C)CC1=CC(=CC=C1)N=C(C2=CC=CC=C2)C3=C(NC4=C3C=CC(=C4)C(=O)N(C)C)O + Nc1ncn([C@H]2C[C@H](O)[C@@H](CO)O2)c(=O)n1 [Decitabine] (partner 2 µM)
Summary of the method: as §1

[10] = compound: CN(C)CC1=CC(=CC=C1)N=C(C2=CC=CC=C2)C3=C(NC4=C3C=CC(=C4)C(=O)N(C)C)O + CC(=O)Nc1cccc(-n2c(=O)n(C3CC3)c(=O)c3c(Nc4ccc(I)cc4F)n(C)c(=O)c(C)c32)c1 [Trametinib] (partner 0.02 µM)
Summary of the method: as §1

[11] = compound: CN(C)CC1=CC(=CC=C1)N=C(C2=CC=CC=C2)C3=C(NC4=C3C=CC(=C4)C(=O)N(C)C)O + O=C(c1cc(Cc2n[nH]c(=O)c3ccccc23)ccc1F)N1CCN(C(=O)C2CC2)CC1 [Olaparib] (partner 8 µM)
Summary of the method: as §1

[12] = compound: CN(C)CC1=CC(=CC=C1)N=C(C2=CC=CC=C2)C3=C(NC4=C3C=CC(=C4)C(=O)N(C)C)O + COc1cccc2cc(-c3nc([C@H]4CC[C@H](C(=O)O)CC4)n4ncnc(N)c34)[nH]c12 [OSI-027] (partner 0.5 µM)
Summary of the method: as §1

[13] = compound: CN(C)CC1=CC(=CC=C1)N=C(C2=CC=CC=C2)C3=C(NC4=C3C=CC(=C4)C(=O)N(C)C)O + CC(=O)c1c(C)c2cnc(Nc3ccc(N4CCNCC4)cn3)nc2n(C2CCCC2)c1=O [Palbociclib] (partner 0.5 µM)
Summary of the method: as §1

[14] = compound: CN(C)CC1=CC(=CC=C1)N=C(C2=CC=CC=C2)C3=C(NC4=C3C=CC(=C4)C(=O)N(C)C)O + N=C(N)NC(=N)NCCc1ccccc1 [Phenformin] (partner 250 µM)
Summary of the method: as §1

**Q.** Which results are given for SW 900?
**A.** relative viability ([1]; 0.08 µM): 0.997; relative viability ([1]; 0.253 µM): 0.886; relative viability ([1]; 0.8 µM): 0.983; relative viability ([1]; 2.53 µM): 0.934; relative viability ([1]; 8 µM): 0.937; relative viability ([2]; first compound 0.08 µM): 0.669; relative viability ([2]; first compound 0.253 µM): 0.58; relative viability ([2]; first compound 0.8 µM): 0.519; relative viability ([2]; first compound 2.53 µM): 0.562; relative viability ([2]; first compound 8 µM): 0.552; relative viability ([3]; first compound 0.08 µM): 0.867; relative viability ([3]; first compound 0.253 µM): 0.842; relative viability ([3]; first compound 0.8 µM): 0.7; relative viability ([3]; first compound 2.53 µM): 0.887; relative viability ([3]; first compound 8 µM): 0.861; relative viability ([4]; first compound 0.08 µM): 0.439; relative viability ([4]; first compound 0.253 µM): 0.495; relative viability ([4]; first compound 0.8 µM): 0.497; relative viability ([4]; first compound 2.53 µM): 0.535; relative viability ([4]; first compound 8 µM): 0.445; relative viability ([5]; first compound 0.08 µM): 0.364; relative viability ([5]; first compound 0.253 µM): 0.582; relative viability ([5]; first compound 0.8 µM): 0.55; relative viability ([5]; first compound 2.53 µM): 0.622; relative viability ([5]; first compound 8 µM): 0.573; relative viability ([6]; first compound 0.08 µM): 0.664; relative viability ([6]; first compound 0.253 µM): 0.581; relative viability ([6]; first compound 0.8 µM): 0.55; relative viability ([6]; first compound 2.53 µM): 0.649; relative viability ([6]; first compound 8 µM): 0.685; relative viability ([7]; first compound 0.08 µM): 0.56; relative viability ([7]; first compound 0.253 µM): 0.495; relative viability ([7]; first compound 0.8 µM): 0.452; relative viability ([7]; first compound 2.53 µM): 0.606; relative viability ([7]; first compound 8 µM): 0.606; relative viability ([8]; first compound 0.08 µM): 0.175; relative viability ([8]; first compound 0.253 µM): 0.167; relative viability ([8]; first compound 0.8 µM): 0.188; relative viability ([8]; first compound 2.53 µM): 0.18; relative viability ([8]; first compound 8 µM): 0.202; relative viability ([9]; first compound 0.08 µM): 0.385; relative viability ([9]; first compound 0.253 µM): 0.48; relative viability ([9]; first compound 0.8 µM): 0.43; relative viability ([9]; first compound 2.53 µM): 0.409; relative viability ([9]; first compound 8 µM): 0.472; relative viability ([10]; first compound 0.08 µM): 0.819; relative viability ([10]; first compound 0.253 µM): 0.738; relative viability ([10]; first compound 0.8 µM): 0.702; relative viability ([10]; first compound 2.53 µM): 1.04; relative viability ([10]; first compound 8 µM): 1.24; relative viability ([11]; first compound 0.08 µM): 0.813; relative viability ([11]; first compound 0.253 µM): 0.962; relative viability ([11]; first compound 0.8 µM): 1.02; relative viability ([11]; first compound 2.53 µM): 0.8; relative viability ([11]; first compound 8 µM): 0.967; relative viability ([12]; first compound 0.08 µM): 0.677; relative viability ([12]; first compound 0.253 µM): 0.652; relative viability ([12]; first compound 0.8 µM): 0.663; relative viability ([12]; first compound 2.53 µM): 0.664; relative viability ([12]; first compound 8 µM): 0.537; relative viability ([13]; first compound 0.08 µM): 0.517; relative viability ([13]; first compound 0.253 µM): 0.481; relative viability ([13]; first compound 0.8 µM): 0.527; relative viability ([13]; first compound 2.53 µM): 0.569; relative viability ([13]; first compound 8 µM): 0.622; relative viability ([14]; first compound 0.08 µM): 0.613; relative viability ([14]; first compound 0.253 µM): 0.668; relative viability ([14]; first compound 0.8 µM): 0.646; relative viability ([14]; first compound 2.53 µM): 0.492; relative viability ([14]; first compound 8 µM): 0.602
